Reference: the NIST ThermoML archive (doi:10.1021/je100583z)
± gives the expanded uncertainty stated by the source.

Conditions: Liquid, Closed cell (Static) method

| SMILES | vapor or sublimation pressure (278.15 K) [kPa] | vapor or sublimation pressure (288.15 K) [kPa] | vapor or sublimation pressure (298.15 K) [kPa] | vapor or sublimation pressure (308.15 K) [kPa] | vapor or sublimation pressure (318.15 K) [kPa] | vapor or sublimation pressure (328.15 K) [kPa] |
| --- | --- | --- | --- | --- | --- | --- |
| FC(C(F)(F)F)C(F)(F)F [1,1,1,2,3,3,3-heptafluoropropane] | 234 ± 1 | 327 ± 1 | 451 ± 1 | 611 ± 1 | 805 ± 2 | 1040 ± 2 |
| O=C=O [carbon dioxide] | 3960 ± 8 | 5080 ± 10 | 6425 ± 13 |  |  |  |
